Laboratory results reported in a melting point compilation (Tetko et al.; mined from patent text by program, amines drawn as free bases though some values may be those of a salt).

Compared with `NC(=O)CCc1conc1-c1ccc(Cl)cc1`, `O=C(NCc1ccc(Cl)cc1)c1cnc2cc(C#CCO)ccc2c1O` is higher in melting point: 158 to 159 °C for the first, 218 to 220 °C for the second.

Compared with `CNCc1ccc(C2=NCCN2C(=O)OC(C)(C)C)cc1`, `CCOCCn1c(C(=O)C2CCN(C(=O)OC(C)(C)C)CC2)nc2ccccc21` is higher in melting point: 65 °C for the first, 96 to 98 °C for the second.

First: O=C(O)[C@@H]1CCCN1Cc1cc2cc3c(cc2c2cc(OCc4ccccc4)ccc12)OCO3
Second: CCOC(=O)/C=C/c1cn(-c2ccccc2)nc1OCc1ccc(OCc2nc(-c3ccco3)oc2C)cc1
The melting point of the first is higher: 147 to 149 °C for the first, 142 to 143 °C for the second.

First: CC(C)C(=O)NS(=O)(=O)c1cccc([N+](=O)[O-])c1
Second: CC1=C(C#N)C(c2cccc([N+](=O)[O-])c2)C2=C(CCCC2=O)N1 (stereo unspecified)
The melting point of the first is lower: 136 to 138 °C for the first, 214 to 216 °C for the second.

Compared with `COC(=O)CCc1cc2cc(C(F)(F)F)ccc2n1S(=O)(=O)c1ccc2nc(N)sc2c1`, `O=C(Nc1ccc(-n2nc(C(F)(F)F)cc2C2CC2)c(F)c1)c1ccncc1F` is higher in melting point: 135 to 136 °C for the first, 161 to 165 °C for the second.

First: COC(=O)c1ccc2c(C(C(=O)NS(=O)(=O)c3ccc(C)cc3OC)c3ccc4c(c3)OCO4)cn(C)c2c1 (stereo unspecified)
Second: COc1ccccc1[C@H](c1cccc2ccccc12)[C@@](C)(C#N)C(=O)N1CCN(c2cccc(C)c2)CC1
The melting point of the first is higher: 184 to 185 °C for the first, 104 to 105 °C for the second.

First: COC(=O)c1c(SC)nn(-c2c(Cl)cc(Cl)cc2Cl)c1N
Second: Cc1cc2c(s1)S(=O)CCc1cc(=O)n(-c3ccc(Cl)cc3)nc1-2 (stereo unspecified)
The melting point of the first is lower: 160 to 162 °C for the first, 174 to 175 °C for the second.

First: Cn1nc(-c2cnc3[nH]cc(C(=O)NCC(C)(C)CO)c3n2)c2ccc(F)cc21
Second: Cc1c(NC(=O)c2ccc(OCC3CCOC3)cc2)ccc2cc(CNCC(C)C)cnc12 (stereo unspecified)
The melting point of the first is higher: 291 to 293 °C for the first, 132 °C for the second.

First: C=C(c1cncn1Cc1ccccc1)C(c1cc(C)cc(C)c1)c1cc(C)cc(C)c1
Second: CC1CNc2c(cccc2[N+](=O)[O-])C(=O)N1Cc1ccccc1 (stereo unspecified)
The melting point of the first is higher: 170 to 176 °C for the first, 125 °C for the second.

First: C=CCOc1ccc(C(=O)C=Cc2cccc(OC)c2OC)cc1
Second: COc1ccc(/C=C/C(=O)Nc2ccccc2C(=O)O)cn1
The melting point of the first is lower: 98 to 99 °C for the first, 209 to 211 °C for the second.

First: CC(=O)NC(=O)C(=O)C(C)(C)C
Second: O=C(O)C(=O)Nc1cccc(NC(=O)C(=O)O)c1Cl
The melting point of the first is lower: 82 to 84 °C for the first, over 320 °C for the second.

First: CC(C)NC(=O)CN1CCN(CC2CSC3=C(O2)c2ccccc2C(=O)C3=O)CC1 (stereo unspecified)
Second: O=Cc1ncn2c1[C@@H]1CCCN1C(=O)c1ccccc1-2
The melting point of the first is lower: 85 to 87 °C for the first, 206 to 208 °C for the second.

Compared with `Cc1nc(CC2OC(CO)C(O)C2O)n2nc(N(C)C)ccc12` (stereo unspecified), `CCN(CC)c1ncnc2nc(-c3ccncc3)[nH]c12` is higher in melting point: 231 to 232 °C for the first, 260 to 262 °C for the second.

First: CC(CC(C)(C)C)CP(=O)(O)Cc1cc(C(C)(C)C)c(O)c(C(C)(C)C)c1 (stereo unspecified)
Second: Cc1cc(C(N)C(=O)O)ccc1O (stereo unspecified)
The melting point of the first is lower: 108 to 110 °C for the first, 205 to 207 °C for the second.

Compared with `O=C1C(c2ccc(O)cc2)=C(c2ccccc2)c2c(O)cc(O)cc21`, `COC(=O)C[C@H](O)C[C@H](O)CCc1c(-c2ccc(F)cc2)c(-c2ccccc2)c(C(=O)Nc2ccccc2)n1C(C)C` is lower in melting point: 223 to 225 °C for the first, 154 to 157 °C for the second.

First: OCC1(c2ccccc2)COc2ccccc2O1 (stereo unspecified)
Second: CN(C)C(=O)CCc1c(-c2ccccc2)n(C)c(=O)c2ccccc12
The melting point of the first is lower: 114 to 116 °C for the first, 166 °C for the second.

Compared with `CCOC(=O)CCCNC(=O)Cn1c(-c2cccc(Cl)c2)nc2cccnc21`, `CCCN(CCC)NNc1nc(C(=O)c2ccccc2O)nc(C(=O)c2ccccc2O)n1` is higher in melting point: 127 to 129 °C for the first, 254 to 255 °C for the second.

First: COc1ccc(C2(O)CC3CCC(C2)N3C)cc1 (stereo unspecified)
Second: COc1ccc(C(O)Cc2ccncc2)cc1OC1CCCC1 (stereo unspecified)
The melting point of the first is higher: 162 °C for the first, 97 to 101 °C for the second.

Compared with `CC(C)N(Cc1coc(-c2ncn3c2CN(C)C(=O)c2c(Cl)cccc2-3)n1)C(C)C`, `Cc1ccc(-c2noc(-c3ccc4c(c3)C(C)(C)CCC4(C)C)n2)cc1` is lower in melting point: 164 to 166 °C for the first, 106 to 109 °C for the second.

First: O=c1[nH]cnc2c(Br)scc12
Second: NS(=O)(=O)c1cccc2nonc12
The melting point of the first is higher: 226 to 229 °C for the first, 157 to 159 °C for the second.

First: COC(=O)c1ncnn1C1OC(COC(=O)c2ccccc2)C(OC(=O)c2ccccc2)C1OC(=O)c1ccccc1 (stereo unspecified)
Second: CC(=O)NCC1CN(c2ccc(-n3cccc3)c(F)c2)C(=O)O1 (stereo unspecified)
The melting point of the first is lower: 122 to 124 °C for the first, 198 to 200 °C for the second.

First: C#CCOc1cc(-n2c(=O)cc(C(F)(F)F)[nH]c2=O)ccc1C
Second: CC(C)Cn1nnc2c3ncnc-3c3ccncc3n21
The melting point of the first is higher: 202 to 204 °C for the first, 181 to 182 °C for the second.

Going from `OC1CSC(Oc2cncc(-c3ncccn3)c2)C(O)C1O` (stereo unspecified) to `CC(C)NCC(O)COc1ccc(OCCSCC2CC2)cc1` (stereo unspecified), the melting point falls from 201 °C to 86 °C.

First: CCOC(CBr)(OCC)C(=O)CBr
Second: Cc1cc(SCCCSc2nnnn2C)nc(N)n1
The melting point of the first is lower: 40 to 41.5 °C for the first, 119 to 120 °C for the second.

Compared with `Cn1c(C=NNC(N)=S)cnc1[N+](=O)[O-]`, `O=C(O)CNc1ccco1` is lower in melting point: 282 to 287 °C for the first, 195 to 199 °C for the second.

For `Cc1ccc(C2c3c(C)c(N4CCN(C(=O)c5ccc(C#N)cc5)CC4)c(C)c(C)c3OC2(C)C)cc1` (stereo unspecified), the melting point was 159 to 161 °C.
